The source made the active and inactive calls.
Columns and labels:
[1] = target: Glyceraldehyde-3-phosphate dehydrogenase (Homo sapiens, UniProt P04406)
[2] = target: T1, Leucine aminopeptidase (Plasmodium falciparum 3D7, UniProt Q8IL11); assay: P. falciparum M17LAP inhibitors, primary screen, biochemical, fluorogenic H-Leu-NHMec substrate, 1536-well (AID 1619); assay type: functional
T1 sequence (Q8IL11 whole entry): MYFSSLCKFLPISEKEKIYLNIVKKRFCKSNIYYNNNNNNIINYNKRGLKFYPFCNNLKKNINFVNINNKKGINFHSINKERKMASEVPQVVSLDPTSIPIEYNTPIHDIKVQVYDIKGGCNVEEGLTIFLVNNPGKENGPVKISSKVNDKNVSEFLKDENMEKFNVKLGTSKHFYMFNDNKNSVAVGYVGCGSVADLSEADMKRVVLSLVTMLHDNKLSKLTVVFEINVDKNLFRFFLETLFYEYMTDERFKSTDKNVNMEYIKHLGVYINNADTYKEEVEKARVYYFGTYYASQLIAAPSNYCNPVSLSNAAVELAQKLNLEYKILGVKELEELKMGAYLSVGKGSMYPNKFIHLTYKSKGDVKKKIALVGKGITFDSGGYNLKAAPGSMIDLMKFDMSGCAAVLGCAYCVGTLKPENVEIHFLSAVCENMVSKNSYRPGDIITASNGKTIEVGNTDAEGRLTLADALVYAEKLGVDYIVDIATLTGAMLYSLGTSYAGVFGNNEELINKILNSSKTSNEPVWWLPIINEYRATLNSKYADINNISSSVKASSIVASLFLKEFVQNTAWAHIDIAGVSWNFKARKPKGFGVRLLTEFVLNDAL

[3] = LGR2 antagonists, dose response, cell-based, HEK293, CRE-luciferase reporter, cherry pick, set 2 (AID 743343); assay type: functional;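 also: transfected cells were stimulated with diluted bursicon conditioned medium after compound addition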
[4] = target: T2, RNA-binding protein pos-1 (Caenorhabditis elegans, UniProt G5EF15); assay: inhibitors of POS-1/mex-3 RNA binding, dose response, biochemical, fluorescence polarization (AID 1964);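 also: purified POS-1 fused to maltose binding protein made in E. coli; potency of compounds blocking POS-1 binding to fluorescent RNA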
T2 sequence (G5EF15 whole entry): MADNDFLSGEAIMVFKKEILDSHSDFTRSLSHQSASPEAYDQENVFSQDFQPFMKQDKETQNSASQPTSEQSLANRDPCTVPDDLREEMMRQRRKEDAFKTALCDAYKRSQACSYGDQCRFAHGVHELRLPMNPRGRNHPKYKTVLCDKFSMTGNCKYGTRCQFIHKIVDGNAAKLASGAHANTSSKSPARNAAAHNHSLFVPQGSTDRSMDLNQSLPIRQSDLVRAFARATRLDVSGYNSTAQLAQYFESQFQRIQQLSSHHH

[5] = A549 cell cytotoxicity, dose response, cytotoxicity control, plate reader, cherry-pick, antagonist series (AID 743412); assay type: functional, cell-based
[6] = target: T3, Nuclear receptor subfamily 0 group B member 1 (Homo sapiens, UniProt P51843); assay type: functional, cell-based;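 also: HEK293T cells transfected with SF-1 and DAX-1 plus StAR promoter luciferase reporter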
T3 sequence (P51843 whole entry): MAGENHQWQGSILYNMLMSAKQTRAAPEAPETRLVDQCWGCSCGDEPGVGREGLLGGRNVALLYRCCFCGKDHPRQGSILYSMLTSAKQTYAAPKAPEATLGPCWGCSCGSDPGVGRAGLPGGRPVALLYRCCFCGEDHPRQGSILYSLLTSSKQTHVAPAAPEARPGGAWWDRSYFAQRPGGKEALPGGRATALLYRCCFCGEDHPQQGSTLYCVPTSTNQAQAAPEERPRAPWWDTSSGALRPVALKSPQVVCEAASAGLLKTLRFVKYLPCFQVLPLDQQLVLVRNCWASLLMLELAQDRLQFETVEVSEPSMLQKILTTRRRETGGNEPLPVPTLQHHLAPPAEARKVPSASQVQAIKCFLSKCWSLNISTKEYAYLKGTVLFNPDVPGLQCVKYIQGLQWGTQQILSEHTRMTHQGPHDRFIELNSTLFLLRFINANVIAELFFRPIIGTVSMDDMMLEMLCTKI

[7] = HEK293 cell cytotoxicity, dose response, cytotoxicity control, plate reader, cherry-picked samples (AID 743446); assay type: functional, cell-based
[8] = Luminescence Cell-Based Dose Confirmation HTS to Identify Inhibitors of Platelet Dense Granule Release. [Related pubchem assays: 1663 (Primary HTS), 1678 (Summary of Project)]; assay type: functional
[9] = tested on: HEK293; assay: inhibitors of LMP1-driven NF-kB reporter, dose response, cell-based, HEK293, luciferase, cherry-pick (AID 588343); assay type: functional; settings: Homo sapiens
[10] = Luminescence Cell-Based Dose Response HTS to Identify Inhibitors of 5'UTR Stem-Loop Driven Prion Protein mRNA Translation in H4 Neuroglioblastoma Cells. [Related pubchem assays: 1827 (Project Summary), 1813 (Primary HTS)]; assay type: functional
[11] = inhibitors of SNCA 5'UTR-driven reporter translation, confirmation, H4 neuroglioma cells, luminescence (AID 1988); assay type: functional, cell-based
[12] = cells; assay type: functional, cell-based
[13] = inhibitors of firefly luciferase expression or activity, dose response, H4 neuroglioma cells, luminescence (AID 1990); assay type: functional, cell-based
[14] = MC4R antagonists, dose response, counter-screen for LGR2 antagonist project, cell-based, plate reader, cherry pick (AID 743444); assay type: functional;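 also: transfected HEK 293 cells stimulated with alpha-MSH peptide; potency of inhibitors of the alpha-MSH evoked signal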
[15] = target: Luciferin 4-monooxygenase (Photinus pyralis, UniProt P08659); assay: firefly luciferase enzyme inhibitors, dose response, biochemical, luminescence (AID 1891)
[16] = target: T4, Zinc finger protein mex-5 (Caenorhabditis elegans, UniProt Q9XUB2); assay: MEX-5/TCR-2 RNA interaction inhibitors, dose response, biochemical, C. elegans, fluorescence polarization (AID 1960)
T4 sequence (Q9XUB2 whole entry): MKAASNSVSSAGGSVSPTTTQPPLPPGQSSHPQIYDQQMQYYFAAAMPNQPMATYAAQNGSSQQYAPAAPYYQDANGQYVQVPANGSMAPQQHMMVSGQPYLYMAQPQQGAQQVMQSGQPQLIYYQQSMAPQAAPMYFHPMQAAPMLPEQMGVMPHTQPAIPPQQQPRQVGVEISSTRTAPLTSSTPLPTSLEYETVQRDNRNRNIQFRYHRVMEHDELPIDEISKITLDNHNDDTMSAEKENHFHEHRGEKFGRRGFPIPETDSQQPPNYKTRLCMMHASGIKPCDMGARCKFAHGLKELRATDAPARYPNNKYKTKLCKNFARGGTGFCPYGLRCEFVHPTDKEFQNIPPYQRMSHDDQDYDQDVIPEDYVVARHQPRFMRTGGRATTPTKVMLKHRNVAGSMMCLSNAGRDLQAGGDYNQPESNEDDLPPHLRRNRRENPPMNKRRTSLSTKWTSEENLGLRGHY

[17] = HepG2 cell cytotoxicity, dose response, cytotoxicity control, plate reader, cherry-pick, antagonist series (AID 743416); assay type: functional, cell-based
[18] = target: T5, Ubiquitin-conjugating enzyme E2 N (Homo sapiens, UniProt P61088); assay type: functional;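 also: Dose-response confirmation in a TR-FRET assay detecting UBC13-driven polyubiquitin chain formation, inhibition measured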
T5 sequence (P61088 whole entry): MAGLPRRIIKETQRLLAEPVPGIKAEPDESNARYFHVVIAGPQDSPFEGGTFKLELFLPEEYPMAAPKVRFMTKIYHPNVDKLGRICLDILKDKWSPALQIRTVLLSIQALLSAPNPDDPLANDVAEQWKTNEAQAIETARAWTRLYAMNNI

[19] = target: DNA dC->dU-editing enzyme APOBEC-3G (Homo sapiens, UniProt Q9HC16); assay: Dose Response confirmation of small molecule APOBEC3G DNA Deaminase Inhibitors via a fluorescence-based single-stranded DNA deaminase assay. [Related pubchem assays (depositor defined):AID493012, AID493028]; assay type: functional
Chain of DNA dC->dU-editing enzyme APOBEC-3G (Q9HC16 whole entry): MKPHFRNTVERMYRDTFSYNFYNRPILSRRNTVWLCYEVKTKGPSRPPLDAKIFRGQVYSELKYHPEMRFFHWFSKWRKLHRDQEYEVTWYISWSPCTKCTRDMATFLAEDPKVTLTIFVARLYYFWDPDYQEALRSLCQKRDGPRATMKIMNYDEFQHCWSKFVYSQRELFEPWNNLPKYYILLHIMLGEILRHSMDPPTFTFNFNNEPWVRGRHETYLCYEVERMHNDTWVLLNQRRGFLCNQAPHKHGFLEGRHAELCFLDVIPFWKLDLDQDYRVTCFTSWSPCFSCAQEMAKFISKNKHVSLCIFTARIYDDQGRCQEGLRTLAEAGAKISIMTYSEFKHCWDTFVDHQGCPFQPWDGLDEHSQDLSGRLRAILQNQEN

Chain of Glyceraldehyde-3-phosphate dehydrogenase (P04406 whole entry): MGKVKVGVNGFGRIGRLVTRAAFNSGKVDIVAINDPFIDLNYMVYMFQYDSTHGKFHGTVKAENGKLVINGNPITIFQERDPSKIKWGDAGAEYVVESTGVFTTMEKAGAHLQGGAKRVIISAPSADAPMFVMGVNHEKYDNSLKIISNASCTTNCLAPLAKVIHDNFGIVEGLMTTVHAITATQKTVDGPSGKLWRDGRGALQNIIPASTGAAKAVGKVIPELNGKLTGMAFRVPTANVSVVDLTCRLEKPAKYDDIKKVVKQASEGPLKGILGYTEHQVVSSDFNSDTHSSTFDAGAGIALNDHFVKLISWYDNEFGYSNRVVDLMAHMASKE
Chain of Luciferin 4-monooxygenase (P08659 whole entry): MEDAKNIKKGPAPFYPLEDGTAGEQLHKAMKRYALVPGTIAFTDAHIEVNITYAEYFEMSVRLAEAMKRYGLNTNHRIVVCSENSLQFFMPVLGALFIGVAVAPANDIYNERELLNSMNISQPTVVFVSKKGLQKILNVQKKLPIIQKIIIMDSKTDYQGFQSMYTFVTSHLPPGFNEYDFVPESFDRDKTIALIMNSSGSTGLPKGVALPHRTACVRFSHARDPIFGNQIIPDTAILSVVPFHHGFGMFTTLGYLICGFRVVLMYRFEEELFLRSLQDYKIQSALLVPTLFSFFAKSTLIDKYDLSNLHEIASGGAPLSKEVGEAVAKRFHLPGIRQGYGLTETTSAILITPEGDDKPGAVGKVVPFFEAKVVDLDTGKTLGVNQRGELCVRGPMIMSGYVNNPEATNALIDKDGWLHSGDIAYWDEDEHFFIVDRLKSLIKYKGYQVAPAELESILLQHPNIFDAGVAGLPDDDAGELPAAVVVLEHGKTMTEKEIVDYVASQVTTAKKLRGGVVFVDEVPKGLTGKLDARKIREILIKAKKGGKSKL

With CCOc1ccc(C(CC(=O)O)C(=O)O)cc1 (stereo not given) the IC50 [1] was > 100 µM (not active).
With Cc1ccc(NC(=O)CSc2ncc(S(=O)(=O)c3ccccc3)c(O)n2)cc1C the IC50 [2] was 4.56 µM (active).
For CCN1CCN(C2=C(Cl)C(=O)N(c3cccc(C)c3)C2=O)CC1, the IC50 [1] was > 50 µM (inconclusive).
For Cc1nc2sc(-c3ccccc3)cc2c(=O)n1N, the AC50 [3] was 2.31 µM (active), the EC50 [4] was > 300 µM (not active) and the AC50 [5] was 24.2 µM (active). The IC50 [6] was > 67.6 µM (inactive), the AC50 [7] was 24.9 µM (active) and the EC50 [8] was 1.73 µM (active). For the same compound, the AC50 [9] was 1.04 µM (active), the EC50 [10] was 6.26 µM (active) and the EC50 [11] was 3.44 µM (active). For the same compound, the IC50 [12] was > 67.6 µM (inactive), the EC50 [13] was 2.82 µM (active) and the AC50 [14] was 2.66 µM (active). The EC50 [15] was 1.01 µM (active), the EC50 [16] was > 300 µM (not active) and the AC50 [17] was 50 µM (active).
For N=C(N)Nc1ccc2[nH]c3c(c2c1)C[C@@]1(O)[C@H]2Cc4ccc(O)c5c4[C@@]1(CCN2CC1CC1)[C@H]3O5, the IC50 [18] was > 20 µM (inactive) and the IC50 [19] was 24.4 µM (active).
